This assay concerns CEM cells HIV-1 protection, formazan growth assay. The experiment in a line: NCI AIDS Antiviral Assay. The note with it: for IC50: measured here: growth of uninfected CEM cells. An outline of the steps:
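Screen of anti-HIV-1 activity in human CEM cells using a formazan-based growth measurement at five drug concentrations. Hits with 50% or greater protection were repeated, and confirmation required reproducible complete protection.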

Each structure is given as a SMILES string. Calls of active or inactive are those of the source.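 Rule for the calls: active = compounds giving half or more protection of infected cells from virus-caused growth loss, again on retest; inactive = the rest.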 Where a SMILES comes first, the peptide text is derived from it. The star is where a group is joined. Cbz = O=C(OCc1ccccc1)* Bounds are passed on as bounds.

50 compounds from PubChem BioAssay AID179 (DTP/NCI, 2004) can be followed below.

As a reminder, the EC50 is the concentration that produces a half-maximal response. One may read the IC50 as the point on the concentration scale where inhibition reaches its midpoint. The low end stands for greater potency in that assay, the high end for weaker potency in that assay. Take `CC(C)CCC[C@@H](C)C1CCC2[C@@H]3CCC4C[C@@H](CC/C=C/CC[C@H]5CC[C@@]6(C)C(CC[C@@H]7C6CC[C@@]6(C)C7CCC6[C@H](C)CCCC(C)C)C5)CC[C@]4(C)C3CC[C@@]21C` (stereo partly drawn): the EC50 is over 9.55 µM and the IC50 was over 9.55 µM. For the compound `CC(C)(C)OC(=O)NNCC(O)COc1ccccc1` (stereo not drawn), the EC50 is over 200 µM and the IC50 amounted to 91.2 µM. On to `CCOC(=O)CNC(=O)C(C)NC(=O)C(NC(=O)OCc1ccccc1)C(C)C` (stereo not drawn) (Cbz-Val-Ala-Gly-OEt; configuration not given here), for which the EC50 is over 200 µM and the IC50 turned out to be 115 µM.

With `O=c1[nH]c(Nc2cc(Cl)cc(Cl)c2)nc2nc[nH]c12`, the EC50 is over 200 µM and the IC50 was over 200 µM. `Cc1cccc(NC(=S)Nc2cccc(C)n2)n1`: the EC50 is over 200 µM and the IC50 is over 200 µM. In the case of `COc1ccc2c(c1)CCN=C2Cc1cc(OC)c(OC)cc1CCCl`, the EC50 was over 200 µM and the IC50 is 53.7 µM. For `COc1cc2c(cc1OC)C13CCN4CC5=CCOC(CC(=O)O)C(C5CC41)C3N2` (stereo not drawn) the same measures were 25.7 µM and 151 µM. Turning to `CCC[CH2][Sn]([CH2]CCC)([CH2]CCC)[CH2]S(=O)(=O)O`, the result was inactive. In the case of `CC(NC(=O)NC(C)(C)C)NC(=O)C(N)CC(=O)O` (stereo not drawn), the EC50 was over 200 µM and the IC50 is over 200 µM. Consider `S=C1N(c2ccc(Br)cc2)C2=Nc3ccccc3SC(=C2N=Nc2ccccc2Cl)N1c1ccc(Cl)cc1`, for which the EC50 is over 34.7 µM and the half-inhibitory concentration (IC50) amounted to 6.76 µM. For `N#CCCC(CC#N)S(=O)(=O)O` (stereo not drawn) the same measures were over 200 µM and over 200 µM. With `COC(=O)C1Cc2c([nH]c3ccccc23)C=N1` (stereo not drawn), the outcome was inactive. As for `CC1=NN(C(=O)CC(=O)Nc2ccccc2C)C(=O)C1N=Nc1ccc(S(=O)(=O)c2ccc(N=NC3C(=O)N(C(=O)CC(=O)Nc4ccccc4C)N=C3C)cc2)cc1` (stereo not drawn), the EC50 is over 50.1 µM and the concentration for half-maximal inhibition (IC50) was over 50.1 µM. In the case of `CCCCCCCN(O)CC1OC(n2ccc(=O)[nH]c2=O)C(O)C1O` (stereo not drawn), the EC50 is over 200 µM and the IC50 was 141 µM.

On to `NCCCCC(NC(=O)C(CS)NC(=O)C(N)Cc1cnc[nH]1)C(=O)NC(Cc1ccccc1)C(=O)NC(Cc1c[nH]c2ccccc12)C(=O)NC(Cc1c[nH]c2ccccc12)C(N)=O` (stereo not drawn), for which the EC50 is over 50.1 µM and the IC50 was over 50.1 µM. For `COC1(O)c2cccc(Cl)c2C(=O)N1C1(C(N)=O)CCCCC1` (stereo not drawn), the result was inactive.

Regarding `Cc1ccc(S(=O)(=O)NC(N)=NCCCC(NC(=O)OCc2ccccc2)C(=O)N[C@H]2CC[C@H]3[C@@H]4CC=C5C[C@@H](O)CC[C@]5(C)[C@H]4CC[C@]23C)cc1` (stereo partly drawn), the EC50 is over 200 µM and the IC50 is 34.7 µM.

In the case of `Cc1cc(=O)[nH]c2c1C(=O)c1c(C)cc(=O)n(C)c1C2=O`, the EC50 is over 2 µM and the IC50 was determined as 0.257 µM. Regarding `Cc1[nH]c2ccccc2c1CC/C(=N\Nc1ccccc1)c1ccccc1`, the outcome was inactive. On to `O=C1CC2C(CC3OC(=O)C4C3C23COC4(O)C(O)C3)c2occc21` (stereo not drawn), for which the EC50 is over 200 µM and the IC50 was 3.24 µM. Consider `COc1ccc(N2N=NN(C(C)C)/C2=C(/Cl)c2nnnn2-c2ccc(OC)cc2)cc1`, for which the EC50 was over 200 µM and the IC50 was 9.33 µM.

Regarding `O=C(O)CCC(=O)NC(c1ccccc1)c1ccccc1`, the EC50 was over 200 µM and the IC50 is over 200 µM. With `CC1c2c(cc(=O)n(Cc3ccccc3)c2O)C(=O)N1C` (stereo not drawn), the EC50 is over 126 µM and the IC50 is 112 µM.

For `CN1CCC(O)C(CNC23CC4CC(CC(C4)C2)C3)C1` (stereo not drawn), the EC50 was 97.7 µM and the IC50 stood at 178 µM. For `CC(=O)Oc1c(N2CCCCC2)c(C(=O)c2ccccc2)c(O)c2ccn(N(C)C)c12`, the EC50 was over 200 µM and the IC50 is 8.32 µM. Turning to `Cn1c(=O)c2c(c3cc(O)ccc31)OC(C(C)(C)O)C2` (stereo not drawn), the EC50 was over 617 µM and the IC50 is 112 µM. As for `Cc1ccc(S(=O)(=O)OC2CSSCC2OS(=O)(=O)c2ccc(C)cc2)cc1` (stereo not drawn), the result was inactive. Take `O=C1OC(c2ccccc2)=N/C1=C\c1ccc(Cl)cc1Cl`: the EC50 was over 200 µM and the IC50 turned out to be 97.7 µM. With `CC(C)(C)NC(NC(C)(C)C)=C(/C=C(/Cl)[N+](=O)[O-])[N+](=O)[O-]`, the EC50 was over 200 µM and the IC50 is 162 µM. `Cc1cccc(C)c1NC(=O)C(=O)C(C(=O)c1ccccc1-c1ccccc1)C1OC(=O)c2ccccc21` (stereo not drawn): the EC50 is over 135 µM and the 50% inhibitory concentration (IC50) is 24.5 µM. For `COc1nc2c(c(O)c(C)c(=O)n2OC2OCC(OC(C)=O)C(OC(C)=O)C2OC(C)=O)c(=O)n1C` (stereo not drawn), the EC50 is over 132 µM and the IC50 was over 132 µM.

On to `COc1ccc(C2NC(=O)N3C(c4ccc(OC)cc4)NC(=O)N23)cc1` (stereo not drawn), for which the outcome was inactive. `Cc1nc2ccc3c(ccc4nc(C)c(N=Nc5ccc(C(=N)N)cc5)c(O)c43)c2c(O)c1N=Nc1ccc(C(=N)N)cc1`: the EC50 was over 200 µM and the IC50 is 11 µM. In the case of `Cc1cc2c(cc1C)C1=C(CCC2)C(=O)C(=O)O1`, the EC50 was over 200 µM and the IC50 was 110 µM. For the compound `Cc1ccc(NC(=O)C(=O)C2C(=O)NC(=O)NC2=O)cc1C`, the EC50 was over 117 µM and the IC50 is over 117 µM. As for `CCOC(=O)c1c2cccccc-2nc1Nc1cccc2c(C)ccnc12`, the outcome was inactive.

For the compound `O=P1(O)c2ccccc2Oc2ccccc21`, the EC50 was over 200 µM and the concentration for half-maximal inhibition (IC50) was over 200 µM. Consider `COc1ccc(OC)c(CCc2ccccc2CC(=O)O)c1`, for which the EC50 is over 832 µM and the IC50 is 501 µM. The corresponding values for `C=C(C)[C@@]1(O[Si](C)(C)C)CCCC[C@@H]1CC(Sc1ccccc1)Sc1ccccc1` are over 200 µM and 11.5 µM. Take `CCOC(=O)C[C@]1(O)[C@@H](CO[Si](C)(C)C(C)(C)C)O[C@@H](n2ccc(=O)[nH]c2=O)[C@@H]1O[Si](C)(C)C(C)(C)C`: the EC50 was over 200 µM and the IC50 stood at 10.7 µM. The corresponding values for `CC1C(=O)NC(=O)CC(=O)NC1=O` are over 1350 µM and over 1350 µM. Turning to `O=c1ccnc(Nc2ccc[nH]c2=S)[nH]1`, the EC50 is over 589 µM and the IC50 was found to be 282 µM.

`CC(C)(CN1CCCCC1)C(=O)/C=C/c1ccc(Cl)c(Cl)c1`: the EC50 was over 33.1 µM and the IC50 was determined as 3.09 µM. Turning to `Cc1cn(COCCSc2ccccc2)c(=O)[nH]c1=O`, the EC50 was over 135 µM and the IC50 amounted to 83.2 µM. Turning to `CCOC(OC1=CCCC1)C(C)[Se]c1ccccc1` (stereo not drawn), the EC50 is over 22.4 µM and the IC50 is over 22.4 µM. As for `O=S(=O)(O)CCCCS(=O)(=O)O`, the EC50 was over 200 µM and the IC50 is over 200 µM.

On to `CCOC(=O)Cn1nc2oc(=O)c(CCN3CCN(c4ccccc4OC)CC3)c(C)c2c1C`, for which the EC50 is over 200 µM and the IC50 is over 200 µM.

Turning to `Cc1cccc(O)c1-c1nnc(CCCCCCCCc2nnc(-c3c(C)cccc3O)n2N)n1N`, the EC50 is over 200 µM and the IC50 turned out to be 2.95 µM. Turning to `CCCCCCCCCCCCCCCC1(OC)C[N+](C)(C)CCO1` (stereo not drawn), the EC50 was over 200 µM and the IC50 stood at 1 µM. Turning to `CC1=NOC(C)(O)/C1=N/O` (stereo not drawn), the EC50 is over 200 µM and the IC50 came out at 158 µM.
